Experimental data as given in patent US12180207B2 (ARRAY BIOPHARMA INC., priority 2018, dated 2024).

Tests used:
[1] = molecular target: dephosphorylated FGFR1 (SEQ ID NO: 1, amino acids 458 to 765) (Homo sapiens (Human), UniProt P11362); experiment: FGFR enzyme binding assay (HTRF tracer displacement), FGFR1; details: 5 nM dephosphorylated FGFR1, average of multiple determinations if made
Outline: (§1)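 Compounds were tested for displacement of a tracer from human FGFR kinase in a time-resolved FRET binding format. After 60 minutes at 22° C, signal was read at two wavelengths and converted to percent of control, normalised between untreated wells and 1 μM reference inhibitor.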

[2] = molecular target: phosphorylated FGFR3 (SEQ ID NO: 5, amino acids 449 to 759) (Homo sapiens (Human), UniProt P22607); experiment: FGFR enzyme binding assay (HTRF tracer displacement), FGFR3; details: 5 nM phosphorylated FGFR3, average of multiple determinations if made
Sequence of phosphorylated FGFR3 (SEQ ID NO: 5, amino acids 449 to 759) (P22607 449-759): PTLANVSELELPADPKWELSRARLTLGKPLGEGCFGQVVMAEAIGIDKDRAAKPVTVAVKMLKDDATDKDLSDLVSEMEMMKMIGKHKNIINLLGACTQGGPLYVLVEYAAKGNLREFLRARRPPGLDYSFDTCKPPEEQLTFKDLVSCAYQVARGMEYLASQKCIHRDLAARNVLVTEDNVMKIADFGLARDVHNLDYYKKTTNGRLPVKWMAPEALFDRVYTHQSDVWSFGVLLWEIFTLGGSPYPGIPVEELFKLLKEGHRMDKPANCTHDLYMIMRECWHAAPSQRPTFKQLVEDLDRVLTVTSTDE
Outline: as §1

[3] = molecular target: recombinant human FGFR1 catalytic domain (amino acids 308-731) (Homo sapiens (Human), UniProt P11362); experiment: FGFR1 enzyme activity assay (LanthaScreen TR-FRET); type: biochemical; details: 20 min incubation at 22° C., average of multiple determinations if made, read-out: FGFR1 Enz FRET IC50
Sequence of recombinant human FGFR1 catalytic domain (amino acids 308-731) (P11362 other isoform, or with tags, fused parts or gaps): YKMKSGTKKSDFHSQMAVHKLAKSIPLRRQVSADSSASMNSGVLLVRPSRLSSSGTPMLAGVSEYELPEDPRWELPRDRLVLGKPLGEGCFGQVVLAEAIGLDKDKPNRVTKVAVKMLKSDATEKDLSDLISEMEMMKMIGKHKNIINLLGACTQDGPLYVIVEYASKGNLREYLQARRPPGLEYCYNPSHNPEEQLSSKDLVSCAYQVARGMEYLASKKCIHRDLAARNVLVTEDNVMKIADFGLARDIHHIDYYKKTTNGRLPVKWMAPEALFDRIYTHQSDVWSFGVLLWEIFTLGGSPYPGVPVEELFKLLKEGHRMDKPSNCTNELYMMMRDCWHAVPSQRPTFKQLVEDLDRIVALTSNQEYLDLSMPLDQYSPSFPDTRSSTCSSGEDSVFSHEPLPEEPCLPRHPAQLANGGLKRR
Outline: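 His-tagged FGFR1 kinase domain with 100 nM Alexa Fluor 647-poly-GT peptide and ATP in pH 7.5 HEPES/MgCl2 buffer with 2% DMSO, 20 min at 22 °C. Quenched with EDTA plus 2 nM Eu-PY20 antibody and read after 60 min. IC50 comes from a 4-parameter fit of percent of control.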

[4] = molecular target: recombinant human FGFR3 (amino acids R397-T806) (Homo sapiens (Human), UniProt P22607); experiment: FGFR3 enzyme activity assay (LanthaScreen TR-FRET); type: biochemical; details: 25 μM ATP, 10 min incubation at 22° C., average of multiple determinations if made, read-out: FGFR3 Enz FRET IC50
Sequence of recombinant human FGFR3 (amino acids R397-T806) (P22607 397-806): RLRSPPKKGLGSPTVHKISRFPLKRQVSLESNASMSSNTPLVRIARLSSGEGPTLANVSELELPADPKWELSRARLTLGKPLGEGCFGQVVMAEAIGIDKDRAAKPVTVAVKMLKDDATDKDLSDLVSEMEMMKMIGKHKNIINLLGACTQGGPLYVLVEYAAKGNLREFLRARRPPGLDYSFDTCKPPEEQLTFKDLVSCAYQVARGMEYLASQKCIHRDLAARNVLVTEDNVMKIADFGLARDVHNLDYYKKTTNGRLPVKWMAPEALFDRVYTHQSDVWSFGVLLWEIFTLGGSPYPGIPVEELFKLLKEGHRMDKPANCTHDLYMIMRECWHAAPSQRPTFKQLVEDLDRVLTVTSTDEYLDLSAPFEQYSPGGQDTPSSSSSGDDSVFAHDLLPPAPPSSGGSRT
Outline: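 GST-HIS6-tagged human FGFR3 (R397-T806) was reacted with 100 nM Alexa Fluor 647-Poly-GT substrate and 25 μM ATP plus compound in HEPES/MgCl2/Triton buffer, pH 7.5, 2% DMSO, for 10 min at 22 °C.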

[5] = molecular target: FGFR1 (SEQ ID NO: 1, amino acids 458-765) (Homo sapiens (Human), UniProt P11362); experiment: LC/MS FGFR1 kobs assay (covalent protein modification); type: binding; details: 500 nM FGFR1, 3 μM compound
Sequence of FGFR1 (SEQ ID NO: 1, amino acids 458-765) (P11362 458-765): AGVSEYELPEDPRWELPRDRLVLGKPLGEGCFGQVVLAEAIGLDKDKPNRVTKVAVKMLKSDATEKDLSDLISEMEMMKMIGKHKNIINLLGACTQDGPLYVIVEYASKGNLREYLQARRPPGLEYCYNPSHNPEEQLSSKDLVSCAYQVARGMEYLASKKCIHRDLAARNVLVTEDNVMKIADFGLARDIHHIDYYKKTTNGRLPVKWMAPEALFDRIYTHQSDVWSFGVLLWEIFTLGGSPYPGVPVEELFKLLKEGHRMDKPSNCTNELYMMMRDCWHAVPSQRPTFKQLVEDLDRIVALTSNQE
Outline: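 Covalent labeling of FGFR1 kinase domain (aa 458-765) tracked over time by intact-protein LC/MS after formic acid quench. kobs derived by fitting DMSO-normalized percent unmodified FGFR1 to an exponential decay model.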

[6] = molecular target: FGFR3 (SEQ ID NO: 5, amino acids 449-759) (Homo sapiens (Human), UniProt P22607); experiment: LC/MS FGFR3 kobs assay (covalent protein modification); type: binding; details: 500 nM FGFR3, 3 μM compound
Sequence of FGFR3 (SEQ ID NO: 5, amino acids 449-759) (P22607 449-759): as the sequence (P22607 449-759) above
Outline: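 The observed rate constant kobs comes from an exponential decay fit of percent unmodified kinase over time. Covalent modification was quantified by Q-TOF LC/MS of formic acid-quenched samples, normalized against DMSO controls.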

Sequence of dephosphorylated FGFR1 (SEQ ID NO: 1, amino acids 458 to 765) (P11362 458-765): as the sequence (P11362 458-765) above

C=CC(=O)N1CC(C)(C(=O)N2CCC(n3cc(-c4cc(OC)c5c(C#N)cnn5c4)cn3)CC2)C1 [Example 38, 6-(1-(1-(1-acryloyl-3-methylazetidine-3-carbonyl)piperidin-4-yl)-1H-pyrazol-4-yl)-4-methoxypyrazolo[1,5-a]pyridine-3-carbonitrile]
IC50 [1]: 33 nM
IC50 [2]: 2 nM
IC50 [3]: 10 nM
IC50 [4]: 3 nM
FGFR1 Enz kobs [5]: 0.00134 min⁻¹
FGFR3 Enz kobs [6]: 0.01168 min⁻¹

C=CC(=O)N1CC(C#N)(C(=O)N2CCC(n3cc(-c4cc(OC)c5c(C#N)cnn5c4)cn3)CC2)C1 [Example 39, 6-(1-(1-(1-acryloyl-3-cyanoazetidine-3-carbonyl)piperidin-4-yl)-1H-pyrazol-4-yl)-4-methoxypyrazolo[1,5-a]pyridine-3-carbonitrile]
IC50 [1]: 26 nM
IC50 [2]: 2 nM
IC50 [3]: 11 nM
IC50 [4]: 3 nM
FGFR1 Enz kobs [5]: 0.01019 min⁻¹
FGFR3 Enz kobs [6]: 0.2019 min⁻¹

C=CC(=O)N1CC(CC)(C(=O)N2CCC(n3cc(-c4cc(OC)c5c(C#N)cnn5c4)cn3)CC2)C1 [Example 40, 6-(1-(1-(1-acryloyl-3-ethylazetidine-3-carbonyl)piperidin-4-yl)-1H-pyrazol-4-yl)-4-methoxypyrazolo[1,5-a]pyridine-3-carbonitrile]
IC50 [1]: 38 nM
IC50 [2]: 5 nM
IC50 [3]: 9 nM
IC50 [4]: 2 nM
FGFR1 Enz kobs [5]: 0.00138 min⁻¹
FGFR3 Enz kobs [6]: 0.01133 min⁻¹

C=CC(=O)N1CC(OC)(C(=O)N2CCC(n3cc(-c4cc(OC)c5c(C#N)cnn5c4)cn3)CC2)C1 [Example 41, 6-(1-(1-(1-acryloyl-3-methoxyazetidine-3-carbonyl)piperidin-4-yl)-1H-pyrazol-4-yl)-4-methoxypyrazolo[1,5-a]pyridine-3-carbonitrile]
IC50 [1]: 61 nM
IC50 [2]: 3 nM
IC50 [3]: 2 nM
IC50 [4]: 2 nM
FGFR1 Enz kobs [5]: 0.00254 min⁻¹
FGFR3 Enz kobs [6]: 0.02709 min⁻¹

C=CC(=O)N1CC(C(=O)N2CCC(n3cc(-c4cc(OC)c5c(C#N)cnn5c4)cn3)CC2)C1C (stereo not drawn) [Example 42, 6-(1-(1-(1-acryloyl-2-methylazetidine-3-carbonyl)piperidin-4-yl)-1H-pyrazol-4-yl)-4-methoxypyrazolo[1,5-a]pyridine-3-carbonitrile]
IC50 [1]: 43 nM
IC50 [2]: 3 nM
IC50 [3]: 11 nM
IC50 [4]: 2 nM
FGFR1 Enz kobs [5]: 0.00113 min⁻¹
FGFR3 Enz kobs [6]: 0.01575 min⁻¹

C=CC(=O)N1CC(C(=O)N2CCC(n3cc(-c4cc(OC)c5c(C#N)cnn5c4)cn3)CC2)C1(C)C (stereo not drawn) [Example 43, 6-(1-(1-(1-acryloyl-2,2-dimethylazetidine-3-carbonyl)piperidin-4-yl)-1H-pyrazol-4-yl)-4-methoxypyrazolo[1,5-a]pyridine-3-carbonitrile]
IC50 [1]: 54 nM
IC50 [2]: 4 nM
IC50 [3]: 6 nM
IC50 [4]: 2 nM
FGFR1 Enz kobs [5]: 0.0005 min⁻¹
FGFR3 Enz kobs [6]: 0.0041 min⁻¹

C=CC(=O)N1CC(C(=O)N2C3CCC2CN(c2ccc(-c4cc(OC)c5c(C#N)cnn5c4)cn2)C3)C1 [Example 50, 6-(6-(8-(1-acryloylazetidine-3-carbonyl)-3,8-diazabicyclo[3.2.1]octan-3-yl)pyridin-3-yl)-4-methoxypyrazolo[1,5-a]pyridine-3-carbonitrile]
IC50 [1]: 27 nM
IC50 [2]: 3 nM
IC50 [3]: 24 nM
IC50 [4]: 10 nM
FGFR1 Enz kobs [5]: 0.00381 min⁻¹
FGFR3 Enz kobs [6]: 0.04375 min⁻¹

C=CC(=O)N1CC(C(=O)N2CC3CCC(C2)N3c2ccc(-c3cc(OC)c4c(C#N)cnn4c3)cn2)C1 [Example 51, 6-(6-(3-(1-acryloylazetidine-3-carbonyl)-3,8-diazabicyclo[3.2.1]octan-8-yl)pyridin-3-yl)-4-methoxypyrazolo[1,5-a]pyridine-3-carbonitrile]
IC50 [1]: 70 nM
IC50 [2]: 9 nM
IC50 [3]: 34 nM
IC50 [4]: 22 nM
FGFR1 Enz kobs [5]: 0.00338 min⁻¹
FGFR3 Enz kobs [6]: 0.01769 min⁻¹

C=CC(=O)N1CC(C(=O)N2C3CC2CN(c2ccc(-c4cc(OC)c5c(C#N)cnn5c4)cn2)C3)C1 [Example 52, 6-(6-(6-(1-acryloylazetidine-3-carbonyl)-3,6-diazabicyclo[3.1.1]heptan-3-yl)pyridin-3-yl)-4-methoxypyrazolo[1,5-a]pyridine-3-carbonitrile]
IC50 [1]: 86 nM
IC50 [2]: 14 nM
IC50 [3]: 66 nM
IC50 [4]: 34 nM
FGFR1 Enz kobs [5]: 0.00086 min⁻¹
FGFR3 Enz kobs [6]: 0.00929 min⁻¹

C=CC(=O)Nc1ccc(C(=O)N2CC[C@@H](n3cc(-c4cc(OC)c5c(C#N)cnn5c4)cn3)C2)cc1 [Example 55, (R)-N-(4-(3-(4-(3-cyano-4-methoxypyrazolo[1,5-a]pyridin-6-yl)-1H-pyrazol-1-yl)pyrrolidine-1-carbonyl)phenyl)acrylamide]
IC50 [1]: 98 nM
IC50 [2]: 7 nM
IC50 [3]: 19 nM
IC50 [4]: 9 nM
FGFR1 Enz kobs [5]: 0.00277 min⁻¹
FGFR3 Enz kobs [6]: 0.0205 min⁻¹

C=CC(=O)Nc1cccc(C(=O)N2CC[C@@H](n3cc(-c4cc(OC)c5c(C#N)cnn5c4)cn3)C2)c1 [Example 56, (R)-N-(3-(3-(4-(3-cyano-4-methoxypyrazolo[1,5-a]pyridin-6-yl)-1H-pyrazol-1-yl)pyrrolidine-1-carbonyl)phenyl)acrylamide]
IC50 [1]: 135 nM
IC50 [2]: 18 nM
IC50 [3]: 28 nM
IC50 [4]: 10 nM
FGFR1 Enz kobs [5]: 0.00181 min⁻¹
FGFR3 Enz kobs [6]: 0.01264 min⁻¹

C=CC(=O)N1CC(C(=O)N2CC[C@@H](n3cc(-c4cc(OC)c5c(C#N)cnn5c4)cn3)C2)C1 [Example 59, (R)-6-(1-(1-(1-acryloylazetidine-3-carbonyl)pyrrolidin-3-yl)-1H-pyrazol-4-yl)-4-methoxypyrazolo[1,5-a]pyridine-3-carbonitrile]
IC50 [1]: 115 nM
IC50 [2]: 16 nM
IC50 [3]: 47 nM
IC50 [4]: 16 nM
FGFR1 Enz kobs [5]: 0.00106 min⁻¹
FGFR3 Enz kobs [6]: 0.00665 min⁻¹

C=CC(=O)Nc1ccc(C(=O)N2CC[C@H](n3cc(-c4cc(OC)c5c(C#N)cnn5c4)cn3)C2)cc1 [Example 66, (S)-N-(4-(3-(4-(3-cyano-4-methoxypyrazolo[1,5-a]pyridin-6-yl)-1H-pyrazol-1-yl)pyrrolidine-1-carbonyl)phenyl)acrylamide]
IC50 [1]: 72 nM
IC50 [2]: 10 nM
IC50 [3]: 16 nM
IC50 [4]: 7 nM
FGFR1 Enz kobs [5]: 0.00332 min⁻¹
FGFR3 Enz kobs [6]: 0.0223 min⁻¹

C=CC(=O)Nc1ccc(C(=O)N2CC[C@H](n3cc(-c4cc(OC)c5c(C#N)cnn5c4)cn3)C2)c(C)c1 [Example 68, (S)-N-(4-(3-(4-(3-cyano-4-methoxypyrazolo[1,5-a]pyridin-6-yl)-1H-pyrazol-1-yl)pyrrolidine-1-carbonyl)-3-methylphenyl)acrylamide]
IC50 [1]: 94 nM
IC50 [2]: 13 nM
IC50 [3]: 6 nM
IC50 [4]: 5 nM
FGFR1 Enz kobs [5]: 0.00181 min⁻¹
FGFR3 Enz kobs [6]: 0.0095 min⁻¹

C=CC(=O)Nc1ccc(C(=O)N2CC[C@H](n3cc(-c4cc(OC)c5c(C#N)cnn5c4)cn3)C2)c(OC)c1 [Example 69, (S)-N-(4-(3-(4-(3-cyano-4-methoxypyrazolo[1,5-a]pyridin-6-yl)-1H-pyrazol-1-yl)pyrrolidine-1-carbonyl)-3-methoxyphenyl)acrylamide]
IC50 [1]: 77 nM
IC50 [2]: 11 nM
IC50 [3]: 12 nM
IC50 [4]: 6 nM
FGFR1 Enz kobs [5]: 0.00422 min⁻¹
FGFR3 Enz kobs [6]: 0.01649 min⁻¹

C=CC(=O)Nc1ccc(C(=O)N2CC[C@H](n3cc(-c4cc(OC)c5c(C#N)cnn5c4)cn3)C2)cc1C [Example 70, (S)-N-(4-(3-(4-(3-cyano-4-methoxypyrazolo[1,5-a]pyridin-6-yl)-1H-pyrazol-1-yl)pyrrolidine-1-carbonyl)-2-methylphenyl)acrylamide]
IC50 [1]: 199 nM
IC50 [2]: 30 nM
IC50 [3]: 16 nM
IC50 [4]: 6 nM
FGFR1 Enz kobs [5]: 0.00278 min⁻¹
FGFR3 Enz kobs [6]: 0.0114 min⁻¹
